Assays:
ErbB2 or EGFR = molecular target: T1, ErbB2 or EGFR; assay: ErbB family substrate phosphorylation enzyme assay (HTRF), Method A or Method B; assay type: biochemical
T1 construct: enzymes purified from a baculovirus expression system; Reagent production was conducted essentially as described in Brignola, P. S., et al, (2002) J. Biol. Chem. 277(2): 1576-1585
Method in brief: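 Baculovirus-expressed EGFR or ErbB2 (0.8 or 10 nM in enzyme mix) phosphorylates biotinylated Peptide C with 20 µM ATP and 0.8 µM peptide (substrate-mix levels), MnCl2, pH 7.5. Reaction ran 90 min at 20 °C with EDTA stop and HTRF anti-phosphotyrosine read. Method A: enzyme added last; Method B: 1 h enzyme–compound preincubation.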

Colo205 tumor cell lines = assay: Methylene blue growth inhibition assay (cellular Method A), Colo205; assay type: cell-based, Human; settings: Homo sapiens, COLO 205, 72 h, 3 days, read-out: Activity (Method): growth inhibition IC50 class
Protocol: Human breast (BT474) and head and neck (HN5) were cultured in low glucose DMEM (Life Technologies 12320-032) containing 10% fetal bovine serum (FBS). Human colon tumor cells (Colo205) were cultured in DMEM (Invitrogen, 10564) containing 10% FBS. The SV40 transformed human mammary epithelial cell line HB4a was transfected with either human H-ras cDNA (HB4a r4.2) or the human c-ErbB2 cDNA (HB4a c5.2). The HB4a clones were cultured in RPMI containing 10% FBS, insulin (5 g/mL), hydrocortisone (5 g/mL), supplemented with the selection agent hygromycin B (50 g/mL). All lines were grown in a humidified incubator at 37° C. in 95% air, 5% CO2. Cells were harvested using trypsin/EDTA, counted using a haemocytometer, and plated in 100 microliters of the appropriate media, at the following densities, in a 96-well tissue culture plate (Falcon 3075): BT474 10,000 cells/well, HN5 3,000 cells/well. The next day, compounds were diluted in DMEM containing […] gentamicin, at twice the final required concentration, from 10 mM stock solutions in DMSO. 100 microliters/well of these dilutions were added to the 100 microliters of media currently on the cell plates. Medium containing 0.6% DMSO was added to control wells. Compounds diluted in DMEM were added to all cell lines. The final concentration of DMSO in all wells was 0.3%. Cells were returned to the incubator (37° C., 10% CO2) for 3 days. Medium was then removed by aspiration. Cell biomass was estimated by staining cells with 90 microliters per well methylene blue (Sigma M9140, 0.5% in 1:1 ethanol:water), and incubation at rt for at least 30 minutes. Stain was removed, and the plates rinsed by immersion in deionized water and air-dried. To release stain from the cells 100 microliters of solubilization solution was added (1% N-lauroyl sarcosine, Sodium salt, Sigma L5125, in PBS), and plates were shaken gently for about 30 minutes. Optical density at 620 nm was measured on a microplate reader. Percent inhibition of cell growth was calculated relative to vehicle treated control wells. Concentration of compound that inhibits 50% of control cell growth (IC50) was interpolated using nonlinear regression (Levenberg-Marquardt) and the equation, y=Vmax*(1−(x/(K+x)))+Y2, where “K” was equal to the IC50. Method B: Celltiter Glo® Growth Inhibition Assays

[1] = test system: BT474 and HN5 tumor cell lines; assay: Methylene blue growth inhibition assay (cellular Method A); assay type: cell-based, Human; settings: Homo sapiens, BT-474, 72 h, 3 days, read-out: Activity (Method): growth inhibition IC50 class
Method in brief: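 Growth inhibition measured by methylene blue staining of biomass (OD 620) after 3 days' compound exposure at 37° C, final DMSO 0.3%. Cell lines: BT474 (10,000/well), HN5 (3,000/well) and Colo205, all in DMEM with 10% FBS; IC50 fitted by nonlinear regression against vehicle-treated wells.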

[2] = Method A: substrate mix added first, reaction started with enzyme mix
[3] = Method B: enzyme mix pre-incubated with compound 1 hour at 20° C., started with substrate mix

SMILES	IC50 (Colo205 tumor cell lines) [nM]	IC50 [1] [nM]	Activity (Method): pIC50 class against ErbB2 or EGFR (ErbB2 or EGFR; [2])	Activity (Method): pIC50 class against ErbB2 or EGFR (ErbB2 or EGFR; [3])
O=C(Nc1cccc(-c2nn3ccccc3c2-c2ccnc(Nc3ccc(O)c(Cl)c3)n2)c1)c1c(F)cccc1F [Example 86, N-[3-(3-{2-[(3-Chloro-4-hydroxyphenyl)amino]-4-pyrimidinyl}pyrazolo[1,5-a]pyridin-2-yl)phenyl]-2,6-difluorobenzamide]	> 1000	< 100	+++ (A) (at least one pIC50 measurement of greater than 7 against either ErbB2 or EGFR)	–
CN1CCN(c2ccc(Nc3nccc(-c4c(-c5cccc(NC(=O)c6c(F)cccc6F)c5)nn5ccccc45)n3)cc2)CC1 [Example 91]	100 to 1000	< 100	–	+++ (B) (at least one pIC50 measurement of greater than 7 against either ErbB2 or EGFR)
O=C(Nc1cccc(-c2nn3ccccc3c2-c2ccnc(Nc3ccc(Cc4ccncc4)cc3)n2)c1)c1c(F)cccc1F [Example 94]	> 1000	< 100	+++ (A) (at least one pIC50 measurement of greater than 7 against either ErbB2 or EGFR)	–
O=C(NC1CC1)c1ccc(Nc2nccc(-c3c(-c4cccc(NC(=O)c5c(F)cccc5F)c4)nn4ccccc34)n2)cc1 [Example 103, N-(3-{3-[2-({4-[(cyclopropylamino)carbonyl]phenyl}-amino)-4-pyrimidinyl]pyrazolo[1,5-a]pyridin-2-yl}phenyl)-2,6-difluorobenzamide]	100 to 1000	< 100	–	+++ (B) (at least one pIC50 measurement of greater than 7 against either ErbB2 or EGFR)
CN1CCN(CCOc2ccc(Nc3nccc(-c4c(-c5cccc(NC(=O)c6c(F)cccc6F)c5)nn5ccccc45)n3)cc2)CC1 [Example 106, 2,6-Difluoro-N-[3-(3-{2-[(4-{[2-(4-methyl-1-piperazinyl)ethyl]oxy}phenyl)amino]-4-pyrimidinyl}pyrazolo[1,5-a]pyridin-2-yl)phenyl]benzamide]	100 to 1000	< 100	+++ (A) (at least one pIC50 measurement of greater than 7 against either ErbB2 or EGFR)	–

Now from value to compound, other results behind:

IC50 (Colo205 tumor cell lines) [nM]	IC50 [1] [nM]	SMILES	Activity (Method): pIC50 class against ErbB2 or EGFR (ErbB2 or EGFR; [2])	Activity (Method): pIC50 class against ErbB2 or EGFR (ErbB2 or EGFR; [3])
100 to 1000	< 100	COc1ccc(Nc2nccc(-c3c(-c4cccc(NC(=O)c5c(F)cccc5F)c4)nn4ccccc34)n2)cc1Cl [Example 87, N-{3-[3-(2-{[3-Chloro-4-(methyloxy)phenyl]amino}-4-pyrimidinyl)pyrazolo[1,5-a]pyridin-2-yl]phenyl}-2,6-difluorobenzamide]	+++ (A) (at least one pIC50 measurement of greater than 7 against either ErbB2 or EGFR)	–
< 100	< 100	CN(C)CCOc1ccc(Nc2nccc(-c3c(-c4cccc(NC(=O)c5c(F)cccc5F)c4)nn4ccccc34)n2)cc1 [Example 105, N-[3-(3-{2-[(4-{[2-(dimethylamino)ethyl]oxy}phenyl)-amino]-4-pyrimidinyl}pyrazolo[1,5-a]pyridin-2-yl)phenyl]-2,6-difluorobenzamide]	–	+++ (B) (at least one pIC50 measurement of greater than 7 against either ErbB2 or EGFR)
< 100	< 100	CCN1CCN(c2ccc(Nc3nccc(-c4c(-c5cccc(NC(=O)c6c(F)cccc6F)c5)nn5ccccc45)n3)cc2)CC1 [Example 107, N-{3-[3-(2-{[4-(4-ethyl-1-piperazinyl)phenyl]amino}-4-pyrimidinyl)pyrazolo[1,5-a]pyridin-2-yl]phenyl}-2,6-difluorobenzamide]	–	+++ (B) (at least one pIC50 measurement of greater than 7 against either ErbB2 or EGFR)
< 100	< 100	CN(C)Cc1ccc(Nc2nccc(-c3c(-c4cccc(NC(=O)c5c(F)cccc5F)c4)nn4ccccc34)n2)cc1 [Example 108, N-(3-{3-[2-({4-[(Dimethylamino)methyl]phenyl}-amino)-4-pyrimidinyl]pyrazolo[1,5-a]pyridin-2-yl}phenyl)-2,6-difluorobenzamide]	–	+++ (B) (at least one pIC50 measurement of greater than 7 against either ErbB2 or EGFR)

Reference: US7812022B2 (GlaxoSmithKline LLC, priority 2004, dated 2010)
